What was measured:
H1 = biological target: T1, H1 (Homo sapiens, UniProt P35367); assay: PDSP selectivity profiling, H1; format: binding
T1 construct: NIMH Psychoactive Drug Screening Program (PDSP), assay service
Experimental: (§1) In vitro assessments of MC-170073, MC-20078, and MC-230079 activity at the following targets were determined using the assay systems available through the Psychoactive Drug Screening Program (PDSP). Detailed protocols for each assay are available at https://pdsp.unc.edu/pdspweb/?site=assays. Receptors 5-HT1A, 5-HT1B, 5-HT1D, 5-HT1E, 5-HT2A, 5-HT2B, 5-HT2C, 5-HT3, 5-HT5A, 5-HT6, 5-HT7, α1A, α1B, α1D, α2A, α2B, α2C, benzodiazepine, β1, β2, β3, GABA-A, H1, H2, H3, H4, M1, M2, M3, M4, M5, δ-opioid, κ-opioid, and µ-opioid and transporters dopamine, norepinephrine, and serotonin were evaluated.

[1] = biological target: human cytochrome P450 3A4 (Homo sapiens, UniProt P08684); assay: Cytochrome P450 inhibition assay, 3A4 (testosterone substrate, LC-MS/MS); format: in vitro ADME; conditions: expressed enzyme, read-out: IC50 CYP3A4
human cytochrome P450 3A4, sequence (P08684 whole entry): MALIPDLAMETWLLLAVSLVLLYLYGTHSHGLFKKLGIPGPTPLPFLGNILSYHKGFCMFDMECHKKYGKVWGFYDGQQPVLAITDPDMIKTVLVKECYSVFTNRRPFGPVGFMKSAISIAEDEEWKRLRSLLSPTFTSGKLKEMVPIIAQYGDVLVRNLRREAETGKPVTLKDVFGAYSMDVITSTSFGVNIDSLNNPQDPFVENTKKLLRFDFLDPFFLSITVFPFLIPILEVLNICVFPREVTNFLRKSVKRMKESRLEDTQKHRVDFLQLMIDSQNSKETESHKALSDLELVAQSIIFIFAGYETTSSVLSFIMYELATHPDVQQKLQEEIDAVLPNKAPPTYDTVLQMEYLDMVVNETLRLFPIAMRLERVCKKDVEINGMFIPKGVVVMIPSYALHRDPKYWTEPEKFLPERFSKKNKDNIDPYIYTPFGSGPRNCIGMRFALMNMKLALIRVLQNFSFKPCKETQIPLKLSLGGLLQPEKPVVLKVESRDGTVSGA
Experimental: Compounds were assessed for their ability to inhibit human cytochrome P450 3A4 using testosterone as a substrate and LC-MS/MS analysis, whereas the 2D6 and 2C9 assays used fluorescent substrates and EnVision plate reader analysis. Expressed enzymes were used to minimize nonspecific binding and membrane partitioning issues ([15]).

α2C = biological target: T2, α2C (Homo sapiens, UniProt P18825); assay: PDSP selectivity profiling, α2C; format: binding
T2 construct: NIMH Psychoactive Drug Screening Program (PDSP), assay service
T2 sequence (P18825 whole entry): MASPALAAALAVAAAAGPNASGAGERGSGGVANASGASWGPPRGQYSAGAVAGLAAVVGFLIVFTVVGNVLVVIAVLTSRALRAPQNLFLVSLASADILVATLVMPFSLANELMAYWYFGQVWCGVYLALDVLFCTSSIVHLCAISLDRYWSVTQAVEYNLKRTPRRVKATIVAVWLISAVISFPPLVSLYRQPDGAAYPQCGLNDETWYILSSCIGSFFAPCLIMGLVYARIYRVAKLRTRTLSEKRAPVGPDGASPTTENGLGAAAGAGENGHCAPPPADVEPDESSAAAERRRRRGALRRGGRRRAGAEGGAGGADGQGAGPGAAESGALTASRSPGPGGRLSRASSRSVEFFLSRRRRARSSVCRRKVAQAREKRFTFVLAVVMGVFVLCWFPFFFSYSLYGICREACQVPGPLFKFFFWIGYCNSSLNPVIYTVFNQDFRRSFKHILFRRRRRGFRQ
Experimental: as §1

[2] = Plasma protein binding by equilibrium dialysis; format: in vitro ADME; conditions: mouse
Experimental: Plasma protein binding was performed by using equilibrium dialysis (ED) ([17]). ED was performed using a 96-well equilibrium dialyzer with a molecular weight (MW) cutoff of 5 K (Harvard Apparatus, Holliston, MA) and placed in a dual-plate rotator set to maximum speed (Harvard Apparatus, Holliston, MA) located in a 37°C incubator with a 10% CO2 environment. After 22 h of dialysis, buffer and plasma were removed from each side of the dialysis plate. Samples were mixed with equal volumes of the opposite matrix (plasma or buffer) and stored at −20°C for future analyte quantitation.
Plasma concentrations were determined using an LC-MS/MS method. Briefly, 100-µL acetonitrile with an internal standard solution (Diltiazem, 0.1 μg/mL) was added to 50-µL plasma or tissue homogenate. After being vortexed for 1 min, the mixture was centrifuged at 3,000 g for 5 min. LC-MS/MS analysis was carried out using a high-performance liquid chromatography system consisting of an Agilent 1100 system interfaced to an API4000 SCIEX triple-quadrupole tandem mass spectrometer (Applied Biosystems/MDS Sciex, Foster City, CA). […] The detection and quantification of analytes were performed with the m/z transition 347/191 for MC-170073, MC-230078, and MC-230079, and m/z 415/178 for diltiazem.

α2B = biological target: T3, α2B (Homo sapiens, UniProt P18089); assay: PDSP selectivity profiling, α2B; format: binding
T3 construct: NIMH Psychoactive Drug Screening Program (PDSP), assay service
T3 sequence (P18089 whole entry): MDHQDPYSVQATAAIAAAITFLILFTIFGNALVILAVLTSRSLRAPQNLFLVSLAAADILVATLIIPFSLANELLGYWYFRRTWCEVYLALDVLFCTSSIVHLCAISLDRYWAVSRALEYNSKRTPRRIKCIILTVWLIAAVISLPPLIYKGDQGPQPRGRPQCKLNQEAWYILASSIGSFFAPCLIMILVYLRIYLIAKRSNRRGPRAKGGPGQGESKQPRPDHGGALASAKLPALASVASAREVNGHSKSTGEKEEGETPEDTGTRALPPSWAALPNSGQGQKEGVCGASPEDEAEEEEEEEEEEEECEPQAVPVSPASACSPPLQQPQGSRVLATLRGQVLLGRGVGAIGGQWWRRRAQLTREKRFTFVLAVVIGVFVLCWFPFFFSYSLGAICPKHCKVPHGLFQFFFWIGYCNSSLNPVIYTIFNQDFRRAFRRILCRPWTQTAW
Experimental: as §1

α2A = biological target: T4, α2A (Homo sapiens, UniProt P08913); assay: PDSP selectivity profiling, α2A; format: binding
T4 construct: NIMH Psychoactive Drug Screening Program (PDSP), assay service
T4 sequence (P08913 whole entry): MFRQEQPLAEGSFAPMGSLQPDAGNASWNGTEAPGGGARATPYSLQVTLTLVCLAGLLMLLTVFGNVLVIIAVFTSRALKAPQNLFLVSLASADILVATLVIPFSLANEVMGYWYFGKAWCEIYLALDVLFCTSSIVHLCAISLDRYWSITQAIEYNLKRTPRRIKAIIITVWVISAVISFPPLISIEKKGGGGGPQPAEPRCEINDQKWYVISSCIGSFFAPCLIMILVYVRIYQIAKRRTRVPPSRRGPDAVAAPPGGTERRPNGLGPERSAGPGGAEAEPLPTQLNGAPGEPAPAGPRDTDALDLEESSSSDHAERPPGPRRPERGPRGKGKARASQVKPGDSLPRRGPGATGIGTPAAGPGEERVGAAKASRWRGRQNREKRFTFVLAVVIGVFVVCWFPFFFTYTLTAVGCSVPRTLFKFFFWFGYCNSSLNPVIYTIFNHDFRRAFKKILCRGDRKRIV
Experimental: as §1

D4 = biological target: T5, D4 (Homo sapiens, UniProt P21917); assay: PDSP selectivity profiling, D4; format: binding
T5 construct: NIMH Psychoactive Drug Screening Program (PDSP), assay service
T5 sequence (P21917 whole entry): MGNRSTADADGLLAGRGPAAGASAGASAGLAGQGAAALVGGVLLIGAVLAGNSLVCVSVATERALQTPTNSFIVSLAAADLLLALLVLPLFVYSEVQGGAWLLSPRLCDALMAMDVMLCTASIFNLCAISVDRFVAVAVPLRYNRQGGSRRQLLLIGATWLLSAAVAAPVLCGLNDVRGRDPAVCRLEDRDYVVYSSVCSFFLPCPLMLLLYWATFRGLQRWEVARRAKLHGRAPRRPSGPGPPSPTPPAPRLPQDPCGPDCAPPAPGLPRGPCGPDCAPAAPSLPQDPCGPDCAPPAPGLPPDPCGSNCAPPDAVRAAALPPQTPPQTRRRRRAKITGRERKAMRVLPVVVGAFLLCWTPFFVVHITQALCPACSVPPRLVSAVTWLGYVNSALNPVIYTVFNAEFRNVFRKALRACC

D1 = biological target: T6, D1 (Homo sapiens, UniProt P21728); assay: PDSP selectivity profiling, D1; format: binding
T6 construct: NIMH Psychoactive Drug Screening Program (PDSP), assay service
T6 sequence (P21728 whole entry): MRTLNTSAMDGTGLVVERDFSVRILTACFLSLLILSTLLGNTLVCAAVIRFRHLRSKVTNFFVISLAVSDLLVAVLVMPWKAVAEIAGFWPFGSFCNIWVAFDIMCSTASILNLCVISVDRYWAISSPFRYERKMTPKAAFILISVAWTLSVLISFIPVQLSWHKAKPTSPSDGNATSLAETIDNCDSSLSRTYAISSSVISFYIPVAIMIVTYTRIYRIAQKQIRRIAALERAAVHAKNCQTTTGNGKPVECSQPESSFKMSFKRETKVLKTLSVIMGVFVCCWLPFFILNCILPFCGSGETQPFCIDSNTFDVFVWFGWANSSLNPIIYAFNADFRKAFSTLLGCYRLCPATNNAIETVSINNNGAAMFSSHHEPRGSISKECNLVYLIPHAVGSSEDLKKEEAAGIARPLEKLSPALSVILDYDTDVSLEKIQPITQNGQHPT

[3] = Microsomal stability assay, mouse liver microsomes; format: in vitro ADME; conditions: 37°C, NADPH regenerating system, read-out: T1/2 MLM
Experimental: Test compounds were assessed for microsomal stability by incubating at 37°C in the presence of mouse or human liver microsomes and an NADPH regenerating system as described by Yang et al. ([16]). Microsomal protein content was adjusted to ensure accurate rates of substrate consumption. Analysis was performed by LC-MS/MS analysis.

T1 sequence (P35367 whole entry): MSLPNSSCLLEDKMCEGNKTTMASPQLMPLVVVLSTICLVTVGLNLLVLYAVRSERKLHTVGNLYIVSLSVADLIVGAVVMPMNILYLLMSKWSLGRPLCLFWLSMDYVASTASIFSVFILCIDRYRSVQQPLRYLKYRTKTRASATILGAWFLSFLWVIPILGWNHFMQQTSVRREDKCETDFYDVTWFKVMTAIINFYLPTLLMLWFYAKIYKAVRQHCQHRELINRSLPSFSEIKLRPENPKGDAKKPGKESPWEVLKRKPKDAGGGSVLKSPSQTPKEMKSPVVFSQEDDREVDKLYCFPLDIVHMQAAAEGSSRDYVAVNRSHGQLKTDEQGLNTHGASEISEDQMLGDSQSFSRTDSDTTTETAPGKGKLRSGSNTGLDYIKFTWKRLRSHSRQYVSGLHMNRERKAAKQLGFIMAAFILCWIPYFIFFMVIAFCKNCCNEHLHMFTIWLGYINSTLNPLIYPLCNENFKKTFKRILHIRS

Ki (H1) [nM]	IC50 [1] [nM]	Ki (α2C) [nM]	fraction unbound at 22 h [2]	Ki (α2B) [nM]	Ki (α2A) [nM]	Ki (D4) [nM]	Ki (D1) [nM]	half-life [3] [min]	SMILES
915	> 10000	3600	0.6	493	3480	591	301	17	CCC1(CC)CC(CCN2CCN(c3ccc(O)cc3)CC2)OC1=O (stereo not shown) [MC-170073]
–	9460	–	–	–	–	–	–	–	CCC1(CC)C[C@@H](CCN2CCN(c3ccc(O)cc3)CC2)OC1=O [MC-230078]

From article PMC11550998, “Novel 5-HT7 receptor antagonists modulate intestinal immune responses and reduce severity of colitis” (American Journal of Physiology - Gastrointestinal and Liver …, 2024)
